From EP4707280A1, “1,4-CINEOLE DERIVATIVE AND INTERMEDIATE THEREOF, HERBICIDE CONTAINING SAID DERIVATIVE AS ACTIVE INGREDIENT, METHOD FOR USING HERBICIDE, AND METHOD FOR PREPARING AGROCHEMICAL COMPOSITION” (HOKKO CHEMICAL INDUSTRY CO., LTD., priority 2023, dated 2024)

Columns and labels:
Format in all cases: in vivo
[1] = tested on: Echinochloa crus-galli var. formosensis; experiment: Test Example 2: herbicidal effect test by application during growth period of paddy rice; conditions: Echinochloa crus-galli; 120 g per 10 ares; applied seven days after sowing, flooded pots; 14 days after application; read-out: weed inhibition rate
Summary of the method: (§1)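 Greenhouse pots of flooded paddy soil, seeded shallowly with 30 seeds per weed, are treated on day 7 by dropper with diluted emulsifiable concentrate equal to 120 g a.i./10 a. Duplicate pots are scored for inhibition rate 14 days post-application.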

Monochoria vaginalis = experiment: as above; conditions: Pontederia vaginalis; 120 g per 10 ares; applied seven days after sowing, flooded pots; 14 days after application; read-out: weed inhibition rate
Summary of the method: as §1

Scirpus juncoides = experiment: as above; conditions: Schoenoplectiella juncoides; 120 g per 10 ares; applied seven days after sowing, flooded pots; 14 days after application; read-out: weed inhibition rate
Summary of the method: as §1

Digitaria ciliaris [2] = experiment: Test Example 3: herbicidal effect test by soil application in upland field; conditions: Digitaria ciliaris, 120 g per 10 ares, sprayed one day after sowing, 14 days after application, read-out: weed inhibition rate
Summary of the method: (§2)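 Pre-emergence test: seeds mixed into top 1 cm of alluvial loam upland soil in pots; emulsifiable concentrate diluted in water sprayed on soil one day after sowing at 100 L/10 a, 120 g a.i./10 a. Weed inhibition rate (%) scored at 14 days, in duplicate.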

Echinochloa crus-galli [3] = experiment: as above; conditions: Echinochloa crus-galli, 120 g per 10 ares, sprayed one day after sowing, 14 days after application, read-out: weed inhibition rate
Summary of the method: as §2

Digitaria ciliaris [4] = experiment: Test Example 4: herbicidal effect test by stem and leaf treatment in upland field; conditions: Digitaria ciliaris; 120 g per 10 ares; sprayed seven days after sowing, upland soil; 14 days after application; read-out: weed inhibition rate
[5] = tested on: Echinochloa crus-galli var. formosensis; experiment: Test Example 6: herbicidal effect test by application during growth period of paddy rice (low dose); conditions: Echinochloa crus-galli; 7.5 g per 10 ares; applied seven days after sowing, flooded pots; 14 days after application; read-out: weed inhibition rate
Summary of the method: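 Low-dose water application, 7.5 g a.i. per 10 ares, given by dropper into flooded pots (about 3 cm depth) 7 days after sowing of 30 weed seeds each at 0–1 cm. Evaluation of inhibition (%) took place 14 days later, duplicate per rate.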

Digitaria ciliaris [6] = experiment: Test Example 7: herbicidal effect test by soil application in upland field (low dose); conditions: Digitaria ciliaris, 7.5 g per 10 ares, sprayed one day after sowing, 14 days after application, read-out: weed inhibition rate
Summary of the method: (§3)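 Duplicate pots of alluvial loam, seeds incorporated in the surface 1 cm. Soil surface sprayed 1 d after sowing (EC in water, 100 L/10 a; 7.5 g a.i./10 a). Endpoint: % inhibition, day 14.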

Echinochloa crus-galli [7] = experiment: as above; conditions: Echinochloa crus-galli, 7.5 g per 10 ares, sprayed one day after sowing, 14 days after application, read-out: weed inhibition rate
Summary of the method: as §3

Digitaria ciliaris [8] = experiment: Test Example 8: herbicidal effect test by stem and leaf treatment in upland field (low dose); conditions: Digitaria ciliaris; 7.5 g per 10 ares; sprayed seven days after sowing, upland soil; 14 days after application; read-out: weed inhibition rate
Echinochloa crus-galli [9] = experiment: as above; conditions: Echinochloa crus-galli; 7.5 g per 10 ares; sprayed seven days after sowing, upland soil; 14 days after application; read-out: weed inhibition rate

CC(C)[C@]12C[C@@H](OCc3c(F)cccc3Cl)[C@](C)(C[C@@H]1Br)O2 [1-713, (1S,2R,4R,5S)-5-bromo-2-[(2-chloro-6-fluorophenyl)methoxy]-1-methyl-4-isopropyl-7-oxabicyclo[2.2.1]heptane]
≥ 80%: inhibition at 1200 g/ha [1] | inhibition at 1200 g/ha (Monochoria vaginalis) | inhibition at 1200 g/ha (Scirpus juncoides) | inhibition at 1200 g/ha (Digitaria ciliaris [2]) | inhibition at 1200 g/ha (Echinochloa crus-galli [3]) | inhibition at 1200 g/ha (Digitaria ciliaris [4]) | inhibition at 75 g/ha [5] | inhibition at 75 g/ha (Digitaria ciliaris [6]) | inhibition at 75 g/ha (Echinochloa crus-galli [7]) | inhibition at 75 g/ha (Digitaria ciliaris [8]) | inhibition at 75 g/ha (Echinochloa crus-galli [9])

C#CCO[C@@H]1C[C@]2(C)O[C@@]1(C(C)C)C[C@H]2OCc1ccccc1F [1-931, (1S,2R,4R,5R)-2-[(2-fluorophenyl)methoxy]-1-methyl-4-isopropyl-5-prop-2-ynoxy-7-oxabicyclo[2.2.1]heptane]
≥ 80%: inhibition at 1200 g/ha [1] | inhibition at 1200 g/ha (Monochoria vaginalis) | inhibition at 1200 g/ha (Scirpus juncoides) | inhibition at 1200 g/ha (Digitaria ciliaris [2]) | inhibition at 1200 g/ha (Echinochloa crus-galli [3]) | inhibition at 1200 g/ha (Digitaria ciliaris [4]) | inhibition at 75 g/ha [5] | inhibition at 75 g/ha (Digitaria ciliaris [6]) | inhibition at 75 g/ha (Echinochloa crus-galli [7]) | inhibition at 75 g/ha (Digitaria ciliaris [8]) | inhibition at 75 g/ha (Echinochloa crus-galli [9])

CC(C)[C@]12C[C@@H](OCc3ccccc3F)[C@](C)(CC1C)O2 (stereo partly drawn) [1-92, (1S,2R,4R)-2-((2-fluorobenzyl)oxy)-4-isopropyl-1,5-dimethyl-7-oxabicyclo[2.2.1]heptane]
≥ 80%: inhibition at 1200 g/ha [1] | inhibition at 1200 g/ha (Monochoria vaginalis) | inhibition at 1200 g/ha (Scirpus juncoides) | inhibition at 1200 g/ha (Digitaria ciliaris [2]) | inhibition at 1200 g/ha (Echinochloa crus-galli [3]) | inhibition at 1200 g/ha (Digitaria ciliaris [4]) | inhibition at 75 g/ha [5] | inhibition at 75 g/ha (Digitaria ciliaris [6]) | inhibition at 75 g/ha (Echinochloa crus-galli [7]) | inhibition at 75 g/ha (Digitaria ciliaris [8]) | inhibition at 75 g/ha (Echinochloa crus-galli [9])

CC(C)[C@]12C[C@@H](OCc3ccccc3F)[C@](C)(C[C@@H]1F)O2 [1-5, (1R,2S,4S,5R)-2-fluoro-5-((2-fluorobenzyl)oxy)-1-isopropyl-4-methyl-7-oxabicyclo[2.2.1]heptane]
≥ 80%: inhibition at 1200 g/ha [1] | inhibition at 1200 g/ha (Monochoria vaginalis) | inhibition at 1200 g/ha (Scirpus juncoides) | inhibition at 1200 g/ha (Digitaria ciliaris [2]) | inhibition at 1200 g/ha (Echinochloa crus-galli [3]) | inhibition at 1200 g/ha (Digitaria ciliaris [4]) | inhibition at 75 g/ha [5] | inhibition at 75 g/ha (Digitaria ciliaris [6]) | inhibition at 75 g/ha (Echinochloa crus-galli [7]) | inhibition at 75 g/ha (Digitaria ciliaris [8]) | inhibition at 75 g/ha (Echinochloa crus-galli [9])

CC(C)[C@]12C[C@@H](OCc3ccccc3F)[C@](C)(C/C1=N\O)O2 [2-197, (1R,4S,5R,E)-5-((2-fluorobenzyl)oxy)-1-isopropyl-4-methyl-7-oxabicyclo[2.2.1]heptan-2-one oxime]
≥ 80%: inhibition at 1200 g/ha [1] | inhibition at 1200 g/ha (Monochoria vaginalis) | inhibition at 1200 g/ha (Scirpus juncoides) | inhibition at 1200 g/ha (Digitaria ciliaris [2]) | inhibition at 1200 g/ha (Echinochloa crus-galli [3]) | inhibition at 1200 g/ha (Digitaria ciliaris [4]) | inhibition at 75 g/ha [5] | inhibition at 75 g/ha (Digitaria ciliaris [6]) | inhibition at 75 g/ha (Echinochloa crus-galli [7]) | inhibition at 75 g/ha (Digitaria ciliaris [8]) | inhibition at 75 g/ha (Echinochloa crus-galli [9])

CC(C)[C@]12C[C@@H](OCc3ccccc3F)[C@](C)(CC1=O)O2 [2-9, (1R,4S,5R)-5-((2-fluorobenzyl)oxy)-1-isopropyl-4-methyl-7-oxabicyclo[2.2.1]heptan-2-one]
≥ 80%: inhibition at 1200 g/ha [1] | inhibition at 1200 g/ha (Monochoria vaginalis) | inhibition at 1200 g/ha (Scirpus juncoides) | inhibition at 1200 g/ha (Digitaria ciliaris [2]) | inhibition at 1200 g/ha (Echinochloa crus-galli [3]) | inhibition at 1200 g/ha (Digitaria ciliaris [4]) | inhibition at 75 g/ha [5] | inhibition at 75 g/ha (Digitaria ciliaris [6]) | inhibition at 75 g/ha (Echinochloa crus-galli [7]) | inhibition at 75 g/ha (Digitaria ciliaris [8]) | inhibition at 75 g/ha (Echinochloa crus-galli [9])

CC(C)[C@]12C[C@@H](OCc3ccccc3Br)[C@](C)(CC1=O)O2 [2-13, (1R,4S,5R)-5-((2-bromobenzyl)oxy)-1-isopropyl-4-methyl-7-oxabicyclo[2.2.1]heptan-2-one]
≥ 80%: inhibition at 1200 g/ha [1] | inhibition at 1200 g/ha (Monochoria vaginalis) | inhibition at 1200 g/ha (Scirpus juncoides) | inhibition at 1200 g/ha (Digitaria ciliaris [2]) | inhibition at 1200 g/ha (Echinochloa crus-galli [3]) | inhibition at 1200 g/ha (Digitaria ciliaris [4]) | inhibition at 75 g/ha [5] | inhibition at 75 g/ha (Digitaria ciliaris [6]) | inhibition at 75 g/ha (Echinochloa crus-galli [7]) | inhibition at 75 g/ha (Digitaria ciliaris [8]) | inhibition at 75 g/ha (Echinochloa crus-galli [9])

Cc1ccccc1CO[C@@H]1C[C@]2(C(C)C)O[C@@]1(C)C[C@@H]2O [1-24, (1R,2S,4S,5R)-1-isopropyl-4-methyl-5-((2-methylbenzyl)oxy)-7-oxabicyclo[2.2.1]heptan-2-ol]
≥ 80%: inhibition at 1200 g/ha [1] | inhibition at 1200 g/ha (Monochoria vaginalis) | inhibition at 1200 g/ha (Scirpus juncoides) | inhibition at 1200 g/ha (Digitaria ciliaris [2]) | inhibition at 1200 g/ha (Echinochloa crus-galli [3]) | inhibition at 1200 g/ha (Digitaria ciliaris [4]) | inhibition at 75 g/ha [5] | inhibition at 75 g/ha (Digitaria ciliaris [6]) | inhibition at 75 g/ha (Echinochloa crus-galli [7]) | inhibition at 75 g/ha (Digitaria ciliaris [8]) | inhibition at 75 g/ha (Echinochloa crus-galli [9])

Cc1ccccc1CO[C@@H]1C[C@]2(C(C)C)O[C@@]1(C)C[C@@H]2I [1-741, (1S,2R,4R,5S)-5-iodo-1-methyl-2-[(2-methylphenyl)methoxy]-4-isopropyl-7-oxabicyclo[2.2.1]heptane]
≥ 80%: inhibition at 1200 g/ha [1] | inhibition at 1200 g/ha (Monochoria vaginalis) | inhibition at 1200 g/ha (Scirpus juncoides) | inhibition at 1200 g/ha (Digitaria ciliaris [2]) | inhibition at 1200 g/ha (Echinochloa crus-galli [3]) | inhibition at 1200 g/ha (Digitaria ciliaris [4]) | inhibition at 75 g/ha [5] | inhibition at 75 g/ha (Digitaria ciliaris [6]) | inhibition at 75 g/ha (Echinochloa crus-galli [7]) | inhibition at 75 g/ha (Digitaria ciliaris [8]) | inhibition at 75 g/ha (Echinochloa crus-galli [9])

C=C1C[C@]2(C)O[C@@]1(C(C)C)C[C@H]2OCc1ccccc1C [2-72, (1R,4S,5R)-1-isopropyl-4-methyl-5-((2-methylbenzyl)oxy)-2-methylene-7-oxabicyclo[2.2.1]heptane]
≥ 80%: inhibition at 1200 g/ha [1] | inhibition at 1200 g/ha (Monochoria vaginalis) | inhibition at 1200 g/ha (Scirpus juncoides) | inhibition at 1200 g/ha (Digitaria ciliaris [2]) | inhibition at 1200 g/ha (Echinochloa crus-galli [3]) | inhibition at 1200 g/ha (Digitaria ciliaris [4]) | inhibition at 75 g/ha [5] | inhibition at 75 g/ha (Digitaria ciliaris [6]) | inhibition at 75 g/ha (Echinochloa crus-galli [7]) | inhibition at 75 g/ha (Digitaria ciliaris [8]) | inhibition at 75 g/ha (Echinochloa crus-galli [9])

CC(C)[C@]12C[C@@H](OCc3ccc(F)cc3)[C@](C)(C[C@@H]1Br)O2 [1-691, (1S,2R,4R,5S)-5-bromo-2-[(4-fluorophenyl)methoxy]-1-methyl-4-isopropyl-7-oxabicyclo[2.2.1]heptane]
≥ 80%: inhibition at 1200 g/ha [1] | inhibition at 1200 g/ha (Monochoria vaginalis) | inhibition at 1200 g/ha (Scirpus juncoides) | inhibition at 1200 g/ha (Digitaria ciliaris [2]) | inhibition at 1200 g/ha (Echinochloa crus-galli [3]) | inhibition at 1200 g/ha (Digitaria ciliaris [4]) | inhibition at 75 g/ha [5] | inhibition at 75 g/ha (Digitaria ciliaris [6]) | inhibition at 75 g/ha (Echinochloa crus-galli [7]) | inhibition at 75 g/ha (Digitaria ciliaris [8]) | inhibition at 75 g/ha (Echinochloa crus-galli [9])
